In patent publication US20090226500A1, “SUTURES AND ANTI-SCARRING AGENTS” (Angiotech Pharmaceuticals, Inc, priority 2006, published 2009):
Structures can show the parent of a compound that is named as a salt.

system: human fibroblasts; assay: Cell proliferation of fibroblasts; format: cell-based; settings: Fibroblast, 72 hours, CYQUANT, read-out: IC50 cell proliferation of fibroblasts
Description: Fibroblasts at 70-90% confluency are trypsinized, replated at 600 cells/well in media in 96-well plates and allowed to attachment overnight. […] Each drug concentration is tested in triplicate wells. Plates containing fibroblasts and drug substance are incubated at 37° C. for 72 hours.
To terminate the assay, the media is removed by gentle aspiration. A 1/400 dilution of CYQUANT 400×GR™ dye indicator (Molecular Probes; Eugene, Oreg.) is added to 1× Cell Lysis buffer, and 200 μL of the mixture is added to the wells of the plate. Plates are incubated at room temperature, protected from light for 3-5 minutes.

Structure (SMILES) | IC50
CO[C@H]1/C=C\C=C(/C)C(=O)NC2=CC(=O)C(NCCN(C)C)=C(C[C@@H](C)C[C@H](OC)[C@H](O)[C@@H](C)/C=C(\C)[C@@H]1OC(N)=O)C2=O [17-DMAG, 17-dimethylaminoethylamino-17-demethoxy-geldanamycin] | 0.1 to 10 nM
CC[C@H]1OC(=O)[C@H](C)[C@@H](O[C@H]2C[C@@](C)(OC)[C@@H](O)[C@H](C)O2)[C@H](C)[C@@H](O[C@@H]2O[C@H](C)C[C@H](N(C)C)[C@H]2O)[C@](C)(OC)C[C@@H](C)C(=O)[C@H](C)[C@@H](O)[C@]1(C)O [Clarithromycin, 6-O-Methylerythromycin] | 100 to 600 nM
NC(Cc1ccc(N(CCCl)CCCl)cc1)C(=O)O (stereo not drawn) [Melphalan] | 1200 to 10000 nM
Cc1cc(O)c2c(c1)C(=O)c1cc(O)cc(O)c1C2=O [Emodin, 6-Methyl-1,3,8-trihydroxyanthraquinone] | 1200 to 10000 nM
COc1cc(/C=C/C(=O)CC(=O)/C=C/c2ccc(O)c(OC)c2)ccc1O [Curcumin, Diferuloylmethane] | 1200 to 10000 nM
O=C(Nc1cc(C(F)(F)F)cc(C(F)(F)F)c1)c1cc(Cl)ccc1O [IMD-0354] | 100 to 600 nM
CC(=O)c1c(O)c(C)c(O)c(Cc2c(O)c3c(c(C(=O)/C=C/c4ccccc4)c2O)OC(C)(C)C=C3)c1O [Rottlerin] | 1200 to 10000 nM
Oc1ccnc(O)n1 [Uracil, 2,4-Dihydroxypyrimidine] | 10 to 100 nM
NC(N)=Nc1nc(CSCCC(N)=NS(N)(=O)=O)cs1 [Famotidine] | 100 to 600 nM
CCCSc1ccc2nc(NC(=O)OC)[nH]c2c1 [Albendazole] | 100 to 600 nM
O=S(=O)(c1cccc2cnccc12)N1CCCNCC1 [Fasudil] | 600 to 1200 nM
C/C=C(\C)C(=O)N[C@@H](c1ccccc1)[C@@H](O)C(=O)O[C@H]1C[C@@]2(O)[C@@H](OC(=O)c3ccccc3)[C@@H]3[C@]4(OC(C)=O)CO[C@@H]4C[C@H](O)[C@@]3(C)C(=O)[C@H](OC(C)=O)C(=C1C)C2(C)C [Cephalomannine] | 10 to 100 nM
CC(=O)Oc1cc(C(F)(F)F)ccc1C(=O)O [Triflusal] | 10 to 100 nM
Cc1ccc2nc(NCCN)c3ncc(C)n3c2c1 [BMS-345541] | 1200 to 10000 nM
Cc1cccc(Nc2ccncc2S(=O)(=O)NC(=O)NC(C)C)c1 [Torasemide] | 10 to 100 nM
C1CCNCC1 [Piperidine] | 1200 to 10000 nM
N=C(N)c1ccc(OCCCCCOc2ccc(C(=N)N)cc2)cc1 [Pentamidine] | 600 to 1200 nM

Structure (SMILES) | IC50
Nc1nc(N)nc(-c2cc(Cl)ccc2Cl)n1 [Irsogladine] | 1200 to 10000 nM
N=c1ccn2c(n1)O[C@H]1[C@H](O)[C@@H](CO)O[C@H]12 [Ancitabine hydrochloride] | 100 to 600 nM
Cc1ccc(=O)n(-c2ccccc2)c1 [Pirfenidone] | 10 to 100 nM
O=c1oc2ccccc2c(O)c1Cc1c(O)c2ccccc2oc1=O [Dicumarol, 3,3-Methylenebis(4-hydroxycoumarin)] | 1200 to 10000 nM
C#C[C@]1(O)CC[C@H]2[C@@H]3CCc4cc(OC5CCCC5)ccc4[C@H]3CC[C@@]21C [Quinestrol, 17a-Ethynylestradiot 3-cyclopentyl ether] | 1200 to 10000 nM
COc1ccc(-c2coc3cc(O)ccc3c2=O)cc1 [Formononetin, 7-Hydroxy-4-methoxyisoflavone] | 100 to 600 nM
Cc1ccc(-c2cc(C(F)(F)F)nn2-c2ccc(S(N)(=O)=O)cc2)cc1 [Celecoxib] | 100 to 600 nM
C/C1=C/C[C@@H](/C(C)=C/c2csc(C)n2)OC(=O)C[C@H](O)C(C)(C)C(=O)[C@H](C)[C@@H](O)[C@@H](C)CCC1 [epothilone D] | 10 to 100 nM
S=C(S)N1CCCC1 [Ammonium pyrrolidinedithiocarbamate, 1-Pyrrolidinecarbodithioic acid ammonium salt] | 100 to 600 nM
CCOC(=O)COc1ccc2c(C)c(CCN(CC)CC)c(=O)oc2c1Cl [Cloricromene] | 1200 to 10000 nM
CCCc1nn(C)c2c(=O)[nH]c(-c3cc(S(=O)(=O)N4CCN(C)CC4)ccc3OCC)nc12 [Sildenafil Citrate] | 1200 to 10000 nM
O=C(OOC(=O)c1ccccc1)c1ccccc1 [Benzoyl peroxide] | 1200 to 10000 nM
CN(C)C[C@@H]1CCn2cc(c3ccccc32)C2=C(C(=O)NC2=O)c2cn(c3ccccc23)CCO1 [LY333531, Ruboxistaurin] | 1200 to 10000 nM
C[C@@H]1C[C@H]2O[C@@H]2/C=C\C=C\C(=O)Cc2c(Cl)c(O)cc(O)c2C(=O)O1 [Radicicol] | 10 to 100 nM
CCc1c2c(nc3ccc(OC(=O)N4CCC(N5CCCCC5)CC4)cc13)-c1cc3c(c(=O)n1C2)COC(=O)[C@]3(O)CC [Irinotecan Hydrochloride Trihydrate] | 600 to 1200 nM
CCC(=O)O[C@@H]1CC(=O)O[C@H](C)C/C=C/C=C/[C@H](O)[C@H](C)C[C@H](CC=O)[C@H](O[C@@H]2O[C@H](C)[C@@H](O[C@H]3C[C@@](C)(O)[C@@H](OC(=O)CC)[C@H](C)O3)[C@H](N(C)C)[C@H]2O)[C@H]1OC [Midecamycin, Leucomycin V 3,4B-dipropionate] | 1200 to 10000 nM

system: MCP-1 production by THP-1 cells; assay: MCP-1 production by macrophages; format: cell-based, human; settings: THP-1 cells stimulated with opsonized zymosan, 24 hours; read-out: IC50 MCP-1 production
Description: The human macrophage cell line, THP-1 was plated in a 12 well plate such that each well contains 1×10^6 cells in 2 ml of media containing 10% FCS. Opsonized zymosan was prepared by resuspending 20 mg of zymosan A in 2 ml of ddH2O and homogenizing until a uniform suspension was obtained. Homogenized zymosan was pelleted at 250 g and resuspended in 4 ml of human serum for a final concentration of 5 mg/ml and incubated in a 37° C. water bath for 20 minutes to enable opsonization. Geldanamycin was prepared in DMSO at a concentration of 10^−2 M and serially diluted 10-fold to give a range of stock concentrations (10^−8 M to 10^−2 M).
THP-1 cells were stimulated to produce MCP-1 by the addition of 1 mg/ml opsonized zymosan. […] was added to THP-1 cells by directly adding DMSO stock solutions, prepared earlier, at a 1/1000 dilution, to each well. Each drug concentration was tested in triplicate wells. Plates were incubated at 37° C. for 24 hours.
After a 24-hour stimulation, supernatants were collected to quantify MCP-1 production. MCP-1 concentrations in the supernatants were determined by ELISA using recombinant human MCP-1 to obtain a standard curve. A 96-well MaxiSorb plate was coated with 100 μL of anti-human MCP-1 Capture Antibody diluted in Coating Buffer (0.1M sodium carbonate pH 9.5) overnight at 4° C. The dilution of Capture Antibody used was lot-specific and was determined empirically. Capture antibody was then aspirated and the plate washed 3 times with Wash Buffer (PBS, 0.05% TWEEN-20). Plates were blocked for 1 hour at room temperature with 200 μL/well of Assay Diluent (PBS, 10% FCS pH 7.0). After blocking, plates were washed 3 times with Wash Buffer. […] Sample supernatants and standards were assayed in triplicate and were incubated at room temperature for 2 hours after addition to the plate coated with Capture Antibody. The plates were washed 5 times and incubated with 100 μL of Working Detector (biotinylated anti-human MCP-1 detection antibody+avidin-HRP) for 1 hour at room temperature. Following this incubation, the plates were washed 7 times and 100 μL of Substrate Solution (tetramethylbenzidine, H2O2) was added to plates and incubated for 30 minutes at room temperature. […] Mean absorbance was determined from triplicate data readings and the mean background was subtracted. MCP-1 concentration values were obtained from the standard curve.

Structure (SMILES) | IC50
O=C(O)CCCCN(CCc1ccccc1OCc1ccc(CCc2ccccc2)cc1)Cc1ccc(C(=O)O)cc1 [Bay 58-2667] | 216 nM
CC[C@]1(O)C[C@H]2CN(CCc3c([nH]c4ccccc34)[C@@](C(=O)OC)(c3cc4c(cc3OC)N(C=O)[C@H]3[C@@](O)(C(=O)OC)[C@H](OC(C)=O)[C@]5(CC)C=CCN6CC[C@]43[C@@H]65)C2)C1 [vincristine] | 16 nM
COc1ccc(C[C@H](N)C(=O)N[C@H]2[C@@H](O)[C@H](n3cnc4c(N(C)C)ncnc43)O[C@@H]2CO)cc1 [puromycin] | 161 nM
Nc1ccn([C@@H]2O[C@H](CO)[C@@H](O)C2(F)F)c(=O)n1 [gemcitabine] | 50 nM
CC1(C)CN[Se]c2ccccc21 [BXT-51072] | 683 nM
C=C1/C(=C\C=C2/CCC[C@]3(C)[C@@H]([C@H](C)CCCC(C)(C)O)CC[C@@H]23)C[C@@H](O)C[C@@H]1O [1-α-25 dihydroxy vitamin D3] | 1 nM

system: Smooth muscle cells; assay: Proliferation of smooth muscle cells; format: cell-based; settings: 72 h, read-out: IC50 proliferation of smooth muscle cells
Description: Smooth muscle cells at 70-90% confluency were trypsinized, replated at 600 cells/well in media in 96-well plates and allowed to attachment overnight. Paclitaxel was prepared in DMSO at a concentration of 10^−2 M and diluted 10-fold to give a range of stock concentrations (10^−8 M to 10^−2 M). […] Each drug concentration was tested in triplicate wells. Plates containing cells and paclitaxel were incubated at 37° C. for 72 hours.
To terminate the assay, the media was removed by gentle aspiration A 1/400 dilution of CYQUANT 400×GR dye indicator (Molecular Probes; Eugene, Oreg.) was added to 1× Cell Lysis buffer, and 200 μL of the mixture was added to the wells of the plate. Plates were incubated at room temperature, protected from light for 3-5 minutes.

Structure (SMILES) | IC50
C/C1=C/C[C@@H](/C(C)=C/c2csc(C)n2)OC(=O)C[C@H](O)C(C)(C)C(=O)[C@H](C)[C@@H](O)[C@@H](C)CCC1 [epothilone D] | 5 nM

same assay, conditions: 72 hours, CYQUANT; read-out: IC50 proliferation of smooth muscle cells

Structure (SMILES) | IC50
CC[C@H](C)C(=O)O[C@H]1C[C@@H](C)C=C2C=C[C@H](C)[C@H](CC[C@@H]3C[C@@H](O)CC(=O)O3)[C@H]21 [lovastatin] | 978 nM
C=C1[C@@H](C)[C@H]2[C@H](Cc3ccccc3)NC(=O)[C@]23OC(=O)/C=C/C(=O)CCC[C@@H](C)C/C=C/[C@H]3[C@@H]1O [cytochalasin A] | 221 nM
CC[C@]1(O)C[C@H]2CN(CCc3c([nH]c4ccccc34)[C@@](C(=O)OC)(c3cc4c(cc3OC)N(C=O)[C@H]3[C@@](O)(C(=O)OC)[C@H](OC(C)=O)[C@]5(CC)C=CCN6CC[C@]43[C@@H]65)C2)C1 [vincristine] | 9 nM
COc1ccc(C[C@H](N)C(=O)N[C@H]2[C@@H](O)[C@H](n3cnc4c(N(C)C)ncnc43)O[C@@H]2CO)cc1 [puromycin] | 384 nM
Nc1ccn([C@@H]2O[C@H](CO)[C@@H](O)C2(F)F)c(=O)n1 [gemcitabine] | 9 nM
Nc1nc(Cl)nc2c1ncn2[C@H]1C[C@H](O)[C@@H](CO)O1 [cladribine, 2-Chloro-2-deoxyadenosine] | 137 nM
CC(=O)[C@]1(O)Cc2c(O)c3c(c(O)c2[C@@H](O[C@H]2C[C@H](N)[C@H](O)[C@H](C)O2)C1)C(=O)c1ccccc1C3=O [idarubicin] | 38 nM
CO[C@H]1/C=C\C=C(/C)C(=O)NC2=CC(=O)C(NCCN(C)C)=C(C[C@@H](C)C[C@H](OC)[C@H](O)[C@@H](C)/C=C(\C)[C@@H]1OC(N)=O)C2=O [17-DMAG, 17-dimethylaminoethylamino-17-demethoxy-geldanamycin] | 17 nM
CO[C@@]12[C@H](COC(N)=O)C3=C(C(=O)C(C)=C(N)C3=O)N1C[C@@H]1N[C@@H]12 [mitomycin C] | 53 nM
COC(=O)[C@@H]1c2cc3c(c(O)c2[C@@H](O[C@@H]2O[C@@H](C)[C@H](OC)[C@@](C)(OC)[C@H]2OC)C[C@]1(C)O)C(=O)c1c(O)cc2c(c1C3=O)O[C@@H]1O[C@@]2(C)[C@H](O)[C@@H](N(C)C)[C@@H]1O [nogalamycin] | 49 nM
CCC(C)n1ncn(-c2ccc(N3CCN(c4ccc(OCC5COC(Cn6cncn6)(c6ccc(Cl)cc6Cl)O5)cc4)CC3)cc2)c1=O (stereo not drawn) [itraconazole] | 795 nM
